Data as given in the supplement of paper PMC11451515.

Test system: SEM cells
Assay: cell viability relative to DMSO control; higher = less cytotoxic
Details: 48 h
Outline: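 NOMO1 or SEM cells were plated at 500 cells/well and P12-Ichikawa cells at 1000 cells/well in 1536-well plates (5 μl), after each leukemia line had been adapted for at least four passages in each medium. Pin dosing delivered library compounds in DMSO at 11 threefold concentrations, 47 μM to 0.79 nM. CellTiter-Glo One luminescence was read after 48 h at 37°C. Viability is reported as a per-plate percentage of DMSO wells, with cell-free wells as background.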

[1] = HPLM + 10% dialyzed FBS, 0.000781 µM
[2] = HPLM + 10% dialyzed FBS, 0.00234 µM
[3] = HPLM + 10% dialyzed FBS, 0.00702 µM
[4] = HPLM + 10% dialyzed FBS, 0.0211 µM
[5] = HPLM + 10% dialyzed FBS, 0.0632 µM
[6] = HPLM + 10% dialyzed FBS, 0.19 µM
[7] = HPLM + 10% dialyzed FBS, 0.569 µM
[8] = HPLM + 10% dialyzed FBS, 1.71 µM
[9] = HPLM + 10% dialyzed FBS, 5.12 µM
[10] = HPLM + 10% dialyzed FBS, 15.4 µM
[11] = HPLM + 10% dialyzed FBS, 46.1 µM
[12] = RPMI 5 mM glucose + 10% dialyzed FBS, 0.000781 µM
[13] = RPMI 5 mM glucose + 10% dialyzed FBS, 0.00234 µM
[14] = RPMI 5 mM glucose + 10% dialyzed FBS, 0.00702 µM
[15] = RPMI 5 mM glucose + 10% dialyzed FBS, 0.0211 µM
[16] = RPMI 5 mM glucose + 10% dialyzed FBS, 0.0632 µM
[17] = RPMI 5 mM glucose + 10% dialyzed FBS, 0.19 µM
[18] = RPMI 5 mM glucose + 10% dialyzed FBS, 0.569 µM
[19] = RPMI 5 mM glucose + 10% dialyzed FBS, 1.71 µM
[20] = RPMI 5 mM glucose + 10% dialyzed FBS, 5.12 µM
[21] = RPMI 5 mM glucose + 10% dialyzed FBS, 15.4 µM
[22] = RPMI 5 mM glucose + 10% dialyzed FBS, 46.1 µM
[23] = RPMI 5 mM glucose + 10% FBS, 0.000781 µM
[24] = RPMI 5 mM glucose + 10% FBS, 0.00234 µM
[25] = RPMI 5 mM glucose + 10% FBS, 0.00702 µM
[26] = RPMI 5 mM glucose + 10% FBS, 0.0211 µM
[27] = RPMI 5 mM glucose + 10% FBS, 0.0632 µM
[28] = RPMI 5 mM glucose + 10% FBS, 0.19 µM
[29] = RPMI 5 mM glucose + 10% FBS, 0.569 µM
[30] = RPMI 5 mM glucose + 10% FBS, 1.71 µM
[31] = RPMI 5 mM glucose + 10% FBS, 5.12 µM
[32] = RPMI 5 mM glucose + 10% FBS, 15.4 µM
[33] = RPMI 5 mM glucose + 10% FBS, 46.1 µM

Row | SMILES | cell viability [1] | cell viability [2] | cell viability [3] | cell viability [4] | cell viability [5] | cell viability [6] | cell viability [7] | cell viability [8] | cell viability [9] | cell viability [10] | cell viability [11] | cell viability [12] | cell viability [13] | cell viability [14] | cell viability [15] | cell viability [16] | cell viability [17] | cell viability [18] | cell viability [19] | cell viability [20] | cell viability [21] | cell viability [22] | cell viability [23] | cell viability [24] | cell viability [25] | cell viability [26] | cell viability [27] | cell viability [28] | cell viability [29] | cell viability [30] | cell viability [31] | cell viability [32] | cell viability [33]
1 | CN(C)C1=CC(=CC=C1)C\2=C\3C(=O)N(NC3=C/C(=O)N2C)C4=CC=CC=C4Cl | 98.5% | 105% | 111% | 107% | 102% | 103% | 98.1% | 16.9% | 5.63% | 5.04% | 6.91% | 109% | 109% | 136% | 116% | 104% | 124% | 95.9% | 7.24% | 5.43% | 6.87% | 7.46% | – | – | – | – | – | – | – | – | – | – | –
2 | Cc1nc2cc(C(=O)N3CCC4(CC3)CC(=O)c3c(cnn3C(C)C)C4)ccc2[nH]1 | 55.6% | 106% | 94.6% | 104% | 111% | 114% | 118% | 105% | 106% | 124% | 109% | 50% | 109% | 115% | 158% | 110% | 122% | 142% | 122% | 118% | 126% | 51.6% | – | – | – | – | – | – | – | – | – | – | –
3 | CCC(C)N1\N=C/N(C1=O)C2=CC=C(C=C2)N3CCN(CC3)C4=CC=C(OC[C@H]5CO[C@@](C[N]6C=NC=N6)(O5)C7=CC=C(Cl)C=C7Cl)C=C4 (some centres not stated) | 94.1% | 106% | 119% | 116% | 119% | 124% | 105% | 122% | 120% | 112% | 107% | 78.4% | 116% | 115% | 116% | 113% | 98.6% | 109% | 115% | 115% | 117% | 105% | – | – | – | – | – | – | – | – | – | – | –
4 | COc1ccc(C(=O)c2c(C)n(CCN3CCOCC3)c3ccccc23)cc1 | 83.5% | 93.6% | 93.3% | 102% | 99.8% | 105% | 84.3% | 108% | 104% | 108% | 103% | 95.6% | 88.3% | 97.9% | 93.5% | 97.2% | 97.4% | 96.1% | 83.8% | 102% | 92.1% | 87.8% | 74.4% | 89% | 88.5% | 88.3% | 91.5% | 93.2% | 77.9% | 85.2% | 87.5% | 72.8% | 66.5%
5 | CCC[S+](=O)([O-])Nc1ccc(F)c(C(=O)c2c[nH]c3ncc(Cl)cc23)c1F | 108% | 137% | 121% | 123% | 123% | 121% | 129% | 103% | 107% | 17.9% | 9.67% | 107% | 120% | 117% | 121% | 132% | 131% | 122% | 120% | 121% | 46.9% | 9.16% | – | – | – | – | – | – | – | – | – | – | –
6 | O=C(Nc1c[nH]nc1-c1nc2cc(CN3CCOCC3)ccc2[nH]1)NC1CC1 | 92.3% | 85.9% | 103% | 87.9% | 40.6% | 45.9% | 26% | 16% | 6.08% | 3.77% | 2.78% | 95.1% | 93.5% | 110% | 77.2% | 26.9% | 26.8% | 22% | 11.7% | 4.09% | 2.03% | 3.29% | 96.7% | 90% | 107% | 101% | 22.7% | 22.5% | 17.1% | 10.4% | 3.98% | 2.18% | 2.92%
7 | N#CC(c1ccnc(NCCc2cccnc2)n1)c1nc2ccccc2s1 (configuration not stated) | 110% | 122% | 118% | 117% | 126% | 136% | 134% | 131% | 144% | 137% | 115% | – | – | – | – | – | – | – | – | – | – | – | 105% | 105% | 144% | 125% | 133% | 118% | 124% | 132% | 140% | 132% | 120%
8 | CCOC(=O)N1c2ccc(C(F)(F)F)cc2[C@@H](N(Cc2cc(C(F)(F)F)cc(C(F)(F)F)c2)C(=O)OC)C[C@H]1CC | 121% | 111% | 124% | 124% | 117% | 113% | 105% | 113% | 109% | 125% | 109% | 118% | 108% | 118% | 113% | 129% | 113% | 118% | 117% | 120% | 127% | 116% | 104% | 108% | 115% | 121% | 116% | 110% | 103% | 109% | 109% | 103% | 97.3%
9 | CCOc1cc2ncc(C#N)c(Nc3ccc(OCc4ccccn4)c(Cl)c3)c2cc1NC(=O)/C=C/CN(C)C | 109% | 122% | 126% | 122% | 111% | 107% | 19.4% | 9.21% | 7.03% | 6.73% | 4.72% | 119% | 133% | 117% | 116% | 121% | 95.9% | 16.9% | 8.13% | 6.73% | 6.47% | 4.68% | 87% | 95.4% | 83.4% | 80.8% | 79.7% | 31.9% | 7.35% | 5.75% | 5.48% | 4.73% | 3.12%
